Measured values: patent US9296723B2, “NAMPT inhibitors” (AbbVie Inc., priority 2012, dated 2016)

What was measured:
PC3 cells = assay: NAMPT Cell Proliferation Assay (Cell Titer Glo); type: cell-based; conditions: Homo sapiens, PC-3, 120 h, incubated 5 days, cell viability
Procedure: NAMPT Cell Proliferation Assay
PC3 cells were seeded in 96-well black plates (Corning #3904) at 500 cells/well in 90 µl of RPMI media containing 10% heat-inactivated FBS and incubated overnight at 37° C. and 5% CO2 to allow cells to attach to wells. The following day, test compounds were serially diluted in neat DMSO to 1000× final concentrations prior to dilution with RPMI media to 10× and 1% DMSO. Ten L of the 10× compounds were then transferred to wells containing cells to produce a dose response of 10-fold dilutions from […]. Cells were incubated for 5 days at 37° C. and 5% CO2, then cell viability was measured using Cell Titer Glo reagent (Promega #G7571). Percent inhibition values were calculated and fitted to a sigmoidal dose response curves using Assay Explorer software to determine IC50s.

NAMPT = NAMPT (Homo sapiens, UniProt P43490); assay: Time-Resolved Fluorescence Resonance Energy Transfer (TR-FRET) Binding Assay of NAMPT; conditions: 6.8 nM NAMPT, 200 nM probe, equilibrated 3 hours, no substrates
Chain of NAMPT (P43490 whole entry): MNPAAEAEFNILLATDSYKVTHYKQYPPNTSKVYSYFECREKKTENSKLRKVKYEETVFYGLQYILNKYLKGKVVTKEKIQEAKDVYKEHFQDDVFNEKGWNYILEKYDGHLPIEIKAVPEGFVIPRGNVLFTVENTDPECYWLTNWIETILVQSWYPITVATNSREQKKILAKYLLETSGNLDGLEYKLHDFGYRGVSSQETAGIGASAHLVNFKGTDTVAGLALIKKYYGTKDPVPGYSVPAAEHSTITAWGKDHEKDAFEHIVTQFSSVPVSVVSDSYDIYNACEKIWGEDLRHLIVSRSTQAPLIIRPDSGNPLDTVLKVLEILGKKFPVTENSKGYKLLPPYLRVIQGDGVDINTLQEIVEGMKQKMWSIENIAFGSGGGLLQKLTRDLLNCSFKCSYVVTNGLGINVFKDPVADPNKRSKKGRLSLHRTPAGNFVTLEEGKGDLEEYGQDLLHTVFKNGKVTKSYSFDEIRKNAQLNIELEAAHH
Procedure: Determination of the utility of compounds having Formula (I) as binders to and inhibitors of NAMPT was performed using Time-Resolved Fluorescence Resonance Energy Transfer (TR-FRET) binding assays.
Time-Resolved Fluorescence Resonance Energy Transfer (TR-FRET) Binding Assay of NAMPT
Six L were transferred to 384-well low-volume plates ([…] #3673). To this, 12 L of a 1.5× solution containing enzyme, probe and antibody were added. […] Reactions were equilibrated at room temperature for 3 hours prior to reading on an Envision multi-label plate reader (Perkin Elmer; Ex=337 nm, Em=520 and 495 nm). Time-resolved FRET ratios (Em520/Em495) were normalized to controls, plotted as a function of compound concentration and fit with the four-parameter logistic equation to determine IC50s.

O=C(CC(F)(F)F)N1CC[C@H](Oc2ccc(NC(=O)N3CC(c4cccnc4)C3)cc2)C1 [Example 96, 3-(pyridin-3-yl)-N-(4-{[(3S)-1-(3,3,3-trifluoropropanoyl)pyrrolidin-3-yl]oxy}phenyl)azetidine-1-carboxamide]
IC50 (PC3 cells): 171 nM
IC50 (NAMPT): 265 nM

CC(C)Cn1cc(-c2ccc(NC(=O)N3CC(c4cccnc4)C3)cc2)cn1 [Example 157, N-{4-[1-(2-methylpropyl)-1H-pyrazol-4-yl]phenyl}-3-(pyridin-3-yl)azetidine-1-carboxamide]
IC50 (PC3 cells): 37.8 nM
IC50 (NAMPT): 22.6 nM

O=C(Nc1ccc(O[C@H]2CCN(C(=O)c3ccccc3)C2)cc1)N1CC(c2cccnc2)C1 [Example 95, N-(4-{[(3S)-1-benzoylpyrrolidin-3-yl]oxy}phenyl)-3-(pyridin-3-yl)azetidine-1-carboxamide]
IC50 (PC3 cells): 66.2 nM
IC50 (NAMPT): 79.1 nM

O=C(Nc1ccc(C2CCN(C(=O)[C@@H]3CCCO3)C2)cc1)N1CC(c2cccnc2)C1 (stereo partly drawn) [Example 66, 3-(pyridin-3-yl)-N-(4-{1-[(2S)-tetrahydrofuran-2-ylcarbonyl]pyrrolidin-3-yl}phenyl)azetidine-1-carboxamide]
IC50 (PC3 cells): 82.2 nM
IC50 (NAMPT): 86 nM

CC(C)C(=O)N1CCC(c2ccc(NC(=O)N3CC(c4cccnc4)C3)cc2)CC1 [Example 56, N-{4-[1-(2-methylpropanoyl)piperidin-4-yl]phenyl}-3-(pyridin-3-yl)azetidine-1-carboxamide]
IC50 (PC3 cells): 8.83 nM
IC50 (NAMPT): 27.4 nM

CN(C)CCC(=O)N1CC[C@@H](Oc2ccc(NC(=O)N3CC(c4cccnc4)C3)cc2)C1 [Example 306, N-(4-{[(3R)-1-(N,N-dimethyl-beta-alanyl)pyrrolidin-3-yl]oxy}phenyl)-3-(pyridin-3-yl)azetidine-1-carboxamide]
IC50 (PC3 cells): 298 nM
IC50 (NAMPT): 507 nM

CC(=O)N1CCC(c2ccc(NC(=O)N3CC(c4cccnc4)C3)cc2)C1 (stereo not drawn) [Example 277, N-[4-(1-acetylpyrrolidin-3-yl)phenyl]-3-(pyridin-3-yl)azetidine-1-carboxamide]
IC50 (PC3 cells): 63.1 nM
IC50 (NAMPT): 76.7 nM

O=C(CCN1CCCCC1)N1CC[C@@H](Oc2ccc(NC(=O)N3CC(c4cccnc4)C3)cc2)C1 [Example 327, N-[4-({(3R)-1-[3-(piperidin-1-yl)propanoyl]pyrrolidin-3-yl}oxy)phenyl]-3-(pyridin-3-yl)azetidine-1-carboxamide]
IC50 (PC3 cells): 189 nM
IC50 (NAMPT): 450 nM

O=C(Nc1ccc(O[C@H]2CCN(C(=O)C3CCOC3)C2)cc1)N1CC(c2cccnc2)C1 (stereo partly drawn) [Example 92, 3-(pyridin-3-yl)-N-(4-{[(3S)-1-(tetrahydrofuran-3-ylcarbonyl)pyrrolidin-3-yl]oxy}phenyl)azetidine-1-carboxamide]
IC50 (PC3 cells): 608 nM
IC50 (NAMPT): 387 nM

O=C(Nc1ccc(OC2CN(C(=O)c3cscn3)C2)cc1)N1CC(c2cccnc2)C1 [Example 147, 3-(pyridin-3-yl)-N-(4-{[1-(1,3-thiazol-4-ylcarbonyl)azetidin-3-yl]oxy}phenyl)azetidine-1-carboxamide]
IC50 (PC3 cells): 5.13 nM
IC50 (NAMPT): 16.7 nM

CC(C)C(=O)N1CC[C@H](Oc2ccc(NC(=O)N3CC(c4cccnc4)C3)cc2)C1 [Example 89, N-(4-{[(3S)-1-(2-methylpropanoyl)pyrrolidin-3-yl]oxy}phenyl)-3-(pyridin-3-yl)azetidine-1-carboxamide]
IC50 (PC3 cells): 180 nM
IC50 (NAMPT): 227 nM

O=C(Nc1ccc(O[C@H]2CCN(C(=O)C3CC3)C2)cc1)N1CC(c2cccnc2)C1 [Example 97, N-(4-{[(3S)-1-(cyclopropylcarbonyl)pyrrolidin-3-yl]oxy}phenyl)-3-(pyridin-3-yl)azetidine-1-carboxamide]
IC50 (PC3 cells): 76.7 nM
IC50 (NAMPT): 168 nM

O=C(CC(F)(F)F)N1CC[C@@H](Oc2ccc(NC(=O)N3CC(c4cccnc4)C3)cc2)C1 [Example 84, 3-(pyridin-3-yl)-N-(4-{[(3R)-1-(3,3,3-trifluoropropanoyl)pyrrolidin-3-yl]oxy}phenyl)azetidine-1-carboxamide]
IC50 (PC3 cells): 22 nM
IC50 (NAMPT): 59.4 nM

CC1(C(=O)N2CCC(c3ccc(NC(=O)N4CC(c5cccnc5)C4)cc3)C2)CC1 (stereo not drawn) [Example 269, N-(4-{1-[(1-methylcyclopropyl)carbonyl]pyrrolidin-3-yl}phenyl)-3-(pyridin-3-yl)azetidine-1-carboxamide]
IC50 (PC3 cells): 16.7 nM
IC50 (NAMPT): 20.1 nM

CCCn1cc(-c2ccc(NC(=O)N3CC(c4cccnc4)C3)cc2)cn1 [Example 158, N-[4-(1-propyl-1H-pyrazol-4-yl)phenyl]-3-(pyridin-3-yl)azetidine-1-carboxamide]
IC50 (PC3 cells): 36.5 nM
IC50 (NAMPT): 26.3 nM

COCCOCC(=O)N1CCC(c2ccc(NC(=O)N3CC(c4cccnc4)C3)cc2)C1 (stereo not drawn) [Example 280, N-(4-{1-[(2-methoxyethoxy)acetyl]pyrrolidin-3-yl}phenyl)-3-(pyridin-3-yl)azetidine-1-carboxamide]
IC50 (PC3 cells): 114 nM
IC50 (NAMPT): 101 nM

CC(C)C(C)C(=O)N1CC(Oc2ccc(NC(=O)N3CC(c4cccnc4)C3)cc2)C1 (stereo not drawn) [Example 123, N-(4-{[1-(2,3-dimethylbutanoyl)azetidin-3-yl]oxy}phenyl)-3-(pyridin-3-yl)azetidine-1-carboxamide]
IC50 (PC3 cells): 8.81 nM
IC50 (NAMPT): 14.7 nM

CC(C)(O)C(=O)N1CC[C@@H](Oc2ccc(NC(=O)N3CC(c4cccnc4)C3)cc2)C1 [Example 82, N-(4-{[(3R)-1-(2-hydroxy-2-methylpropanoyl)pyrrolidin-3-yl]oxy}phenyl)-3-(pyridin-3-yl)azetidine-1-carboxamide]
IC50 (PC3 cells): 7.24 nM
IC50 (NAMPT): 9.73 nM

O=C(CC1CCOCC1)N1CCC(c2ccc(NC(=O)N3CC(c4cccnc4)C3)cc2)CC1 [Example 50, 3-(pyridin-3-yl)-N-{4-[1-(tetrahydro-2H-pyran-4-ylacetyl)piperidin-4-yl]phenyl}azetidine-1-carboxamide]
IC50 (PC3 cells): 8.57 nM
IC50 (NAMPT): 15.6 nM

O=C(CC1CC1)N1CCC(c2ccc(NC(=O)N3CC(c4cccnc4)C3)cc2)C1 (stereo not drawn) [Example 69, N-{4-[1-(cyclopropylacetyl)pyrrolidin-3-yl]phenyl}-3-(pyridin-3-yl)azetidine-1-carboxamide]
IC50 (PC3 cells): 61.3 nM
IC50 (NAMPT): 44.8 nM

O=C(Nc1ccc(C2CCN(C(=O)C3CCOC3)C2)cc1)N1CC(c2cccnc2)C1 (stereo not drawn) [Example 68, 3-(pyridin-3-yl)-N-{4-[1-(tetrahydrofuran-3-ylcarbonyl)pyrrolidin-3-yl]phenyl}azetidine-1-carboxamide]
IC50 (PC3 cells): 59.1 nM
IC50 (NAMPT): 86.2 nM

CCCC(C)CN1CC(c2ccc(NC(=O)N3CC(c4cccnc4)C3)cc2)C1 (stereo not drawn) [Example 249, N-{4-[1-(2-methylpentyl)azetidin-3-yl]phenyl}-3-(pyridin-3-yl)azetidine-1-carboxamide]
IC50 (PC3 cells): 541 nM
IC50 (NAMPT): 193 nM

Cn1cccc1C(=O)N1CCC(Oc2ccc(NC(=O)N3CC(c4cccnc4)C3)cc2)CC1 [Example 36, N-[4-({1-[(1-methyl-1H-pyrrol-2-yl)carbonyl]piperidin-4-yl}oxy)phenyl]-3-(pyridin-3-yl)azetidine-1-carboxamide]
IC50 (PC3 cells): 59.5 nM
IC50 (NAMPT): 27.3 nM

CC1(C(=O)N2CC[C@@H](Oc3ccc(NC(=O)N4CC(c5cccnc5)C4)cc3)C2)CCCCC1 [Example 316, N-[4-({(3R)-1-[(1-methylcyclohexyl)carbonyl]pyrrolidin-3-yl}oxy)phenyl]-3-(pyridin-3-yl)azetidine-1-carboxamide]
IC50 (PC3 cells): 17.3 nM
IC50 (NAMPT): 13.6 nM
